{
  "source": "patent US20260285850A1",
  "about": "“SUBSTITUTED OXAZOLIDINONES AND IMIDAZOLINONES AS HERBICIDES” (FMC CORPORATION, priority 2023, published 2026)",
  "assay_type_in_all_cases": "in vivo",
  "key": {"[1]": {"system": "ducksalad (Heteranthera limosa)", "test": "Test B flooded paddy test, visual plant response rating 0-100", "settings": "250 g ai/ha, Flood, applied to paddy water, evaluated after 13 days", "procedure,_shortened": "(§1)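 Visual evaluation after 13 days. Water-applied treatment, 3 cm flood depth held constant, plants at 2-leaf stage at treatment.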"}, "[2]": {"system": "sedge, umbrella (small-flower umbrella sedge, Cyperus difformis)", "test": "Test B flooded paddy test, visual plant response rating 0-100", "settings": "250 g ai/ha, Flood, applied to paddy water, evaluated after 13 days", "procedure,_shortened": "as §1"}, "[3]": {"system": "barnyardgrass (Echinochloa crusgalli)", "test": "Test B flooded paddy test, visual plant response rating 0-100", "settings": "250 g ai/ha, Flood, applied to paddy water, evaluated after 13 days", "procedure,_shortened": "as §1"}, "rice (Oryza sativa)": {"system": "rice (Oryza sativa)", "test": "Test B flooded paddy test, visual plant response rating 0-100", "settings": "250 g ai/ha, Flood, applied to paddy water, evaluated after 13 days", "procedure,_shortened": "as §1"}, "[4]": {"system": "wheat (Triticum aestivum)", "test": "Test A preemergence soil spray, visual injury rating 0-100", "settings": "10 days", "procedure,_shortened": "(§2)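 Directed preemergence spray onto seeded soil or postemergence spray onto 2-10 cm plants (loam plus sand); compound carried in surfactant-containing non-phytotoxic solvent. Injury rated by eye after 10 d greenhouse growth; 0 = no effect, 100 = complete control.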"}, "[5]": {"system": "ragweed (common ragweed, Ambrosia artemisiifolia)", "test": "Test A preemergence soil spray, visual injury rating 0-100", "settings": "10 days", "procedure,_shortened": "as §2"}, "[6]": {"system": "ryegrass, Italian (italian ryegrass, Lolium multiflorum)", "test": "Test A preemergence soil spray, visual injury rating 0-100", "settings": "10 days", "procedure,_shortened": "as §2"}, "[7]": {"system": "barnyardgrass (Echinochloa crus-galli)", "test": "Test A preemergence soil spray, visual injury rating 0-100", "settings": "10 days", "procedure,_shortened": "as §2"}, "kochia (Bassia scoparia) [8]": {"system": "kochia (Bassia scoparia)", "test": "Test A preemergence soil spray, visual injury rating 0-100", "settings": "16 g ai/ha, 0 to 100 scale, 10 days", "procedure,_shortened": "as §2"}, "[9]": {"system": "blackgrass (Alopecurus myosuroides)", "test": "Test A preemergence soil spray, visual injury rating 0-100", "settings": "10 days", "procedure,_shortened": "as §2"}, "[10]": {"system": "palmer (palmer amaranth, palmer pigweed, Amaranthus palmeri)", "test": "Test A preemergence soil spray, visual injury rating 0-100", "settings": "10 days", "procedure,_shortened": "as §2"}, "corn (Zea mays) [11]": {"system": "corn (Zea mays)", "test": "Test A preemergence soil spray, visual injury rating 0-100", "settings": "10 days", "procedure,_shortened": "as §2"}, "[12]": {"system": "oat, wild (wild oat, Avena fatua)", "test": "Test A preemergence soil spray, visual injury rating 0-100", "settings": "10 days", "procedure,_shortened": "as §2"}, "soybean (Glycine max) [13]": {"system": "soybean (Glycine max)", "test": "Test A preemergence soil spray, visual injury rating 0-100", "settings": "10 days", "procedure,_shortened": "as §2"}, "[14]": {"system": "green foxtail (Setaria viridis)", "test": "Test A preemergence soil spray, visual injury rating 0-100", "settings": "10 days", "procedure,_shortened": "as §2"}, "[15]": {"system": "wheat (Triticum aestivum)", "test": "Test A postemergence application, visual injury rating 0-100", "procedure,_shortened": "as §2"}, "[16]": {"system": "ragweed (common ragweed, Ambrosia artemisiifolia)", "test": "Test A postemergence application, visual injury rating 0-100", "procedure,_shortened": "as §2"}, "[17]": {"system": "ryegrass, Italian (italian ryegrass, Lolium multiflorum)", "test": "Test A postemergence application, visual injury rating 0-100", "procedure,_shortened": "as §2"}, "[18]": {"system": "barnyardgrass (Echinochloa crus-galli)", "test": "Test A postemergence application, visual injury rating 0-100", "procedure,_shortened": "as §2"}, "kochia (Bassia scoparia) [19]": {"system": "kochia (Bassia scoparia)", "test": "Test A postemergence application, visual injury rating 0-100", "procedure,_shortened": "as §2"}, "[20]": {"system": "blackgrass (Alopecurus myosuroides)", "test": "Test A postemergence application, visual injury rating 0-100", "procedure,_shortened": "as §2"}, "[21]": {"system": "galium (catchweed bedstraw, Galium aparine)", "test": "Test A postemergence application, visual injury rating 0-100", "procedure,_shortened": "as §2"}, "[22]": {"system": "palmer (palmer amaranth, palmer pigweed, Amaranthus palmeri)", "test": "Test A postemergence application, visual injury rating 0-100", "procedure,_shortened": "as §2"}, "corn (Zea mays) [23]": {"system": "corn (Zea mays)", "test": "Test A postemergence application, visual injury rating 0-100", "procedure,_shortened": "as §2"}, "[24]": {"system": "oat, wild (wild oat, Avena fatua)", "test": "Test A postemergence application, visual injury rating 0-100", "procedure,_shortened": "as §2"}, "[25]": {"system": "horseweed (Erigeron canadensis)", "test": "Test A postemergence application, visual injury rating 0-100", "procedure,_shortened": "as §2"}, "soybean (Glycine max) [26]": {"system": "soybean (Glycine max)", "test": "Test A postemergence application, visual injury rating 0-100", "procedure,_shortened": "as §2"}, "[27]": {"system": "green foxtail (Setaria viridis)", "test": "Test A postemergence application, visual injury rating 0-100", "procedure,_shortened": "as §2"}, "[28]": {"settings": "62 g ai/ha, 0 = no effect, 100 = complete control"}, "[29]": {"settings": "62 g ai/ha, postemergence, 10 days, 0 = no effect, 100 = complete control"}, "[30]": {"settings": "Postemergence, 16 g ai/ha, greenhouse 10 days, 0 no effect, 100 complete control"}},
  "data": [
    {"smiles": "CCOC(=O)C1C=CC(NC(=O)C2(C)CN(c3cccc(OC(F)(F)F)c3)C(=O)O2)C1", "note": "(stereo not drawn) [Compound 102]", "values": [
      {"measurement": "Plant response rating, Ducksalad (0 to 100 scale, 0 is no effect and 100 is complete control)", "setting": "[1]", "result": 0},
      {"measurement": "Plant response rating, Sedge, Umbrella (0 to 100 scale, 0 is no effect and 100 is complete control)", "setting": "[2]", "result": 0},
      {"measurement": "Plant response rating, Barnyardgrass (0 to 100 scale, 0 is no effect and 100 is complete control)", "setting": "[3]", "result": 0},
      {"measurement": "Plant response rating, Rice (0 to 100 scale, 0 is no effect and 100 is complete control)", "setting": "rice (Oryza sativa)", "result": 0},
      {"measurement": "Wheat plant response rating", "setting": "[4]; 16 g ai/ha, 0 to 100 scale", "result": 0},
      {"measurement": "Wheat plant response rating (0-100)", "setting": "[4]; [28]", "result": 20},
      {"measurement": "Ragweed plant response rating", "setting": "[5]; 16 g ai/ha, 0 to 100 scale", "result": 0},
      {"measurement": "Ragweed plant response rating (0-100)", "setting": "[5]; [28]", "result": 0},
      {"measurement": "Ryegrass, Italian plant response rating", "setting": "[6]; 16 g ai/ha, 0 to 100 scale", "result": 0},
      {"measurement": "Ryegrass, Italian plant response rating (0-100)", "setting": "[6]; [28]", "result": 70},
      {"measurement": "Barnyardgrass plant response rating", "setting": "[7]; 16 g ai/ha, 0 to 100 scale", "result": 0},
      {"measurement": "Barnyardgrass plant response rating (0-100)", "setting": "[7]; [28]", "result": 0},
      {"measurement": "Kochia plant response rating", "setting": "kochia (Bassia scoparia) [8]", "result": 0},
      {"measurement": "Blackgrass plant response rating", "setting": "[9]; 16 g ai/ha, 0 to 100 scale", "result": 0},
      {"measurement": "Blackgrass plant response rating (0-100)", "setting": "[9]; [28]", "result": 30},
      {"measurement": "Pigweed, Palmer plant response rating", "setting": "[10]; 16 g ai/ha, 0 to 100 scale", "result": 0},
      {"measurement": "Pigweed, Palmer plant response rating (0-100)", "setting": "[10]; [28]", "result": 0},
      {"measurement": "Corn plant response rating", "setting": "corn (Zea mays) [11]; 16 g ai/ha, 0 to 100 scale", "result": 0},
      {"measurement": "Corn plant response rating (0-100)", "setting": "corn (Zea mays) [11]; [28]", "result": 10},
      {"measurement": "Oat, Wild plant response rating", "setting": "[12]; 16 g ai/ha, 0 to 100 scale", "result": 0},
      {"measurement": "Oat, Wild plant response rating (0-100)", "setting": "[12]; [28]", "result": 30},
      {"measurement": "Soybean plant response rating", "setting": "soybean (Glycine max) [13]; 16 g ai/ha, 0 to 100 scale", "result": 0},
      {"measurement": "Soybean plant response rating (0-100)", "setting": "soybean (Glycine max) [13]; [28]", "result": 0},
      {"measurement": "Foxtail, Green plant response rating", "setting": "[14]; 16 g ai/ha, 0 to 100 scale", "result": 0},
      {"measurement": "Foxtail, Green plant response rating (0-100)", "setting": "[14]; [28]", "result": 10},
      {"measurement": "Wheat plant response rating (0-100)", "setting": "[15]; [29]", "result": 20},
      {"measurement": "Wheat plant response rating (0 to 100 scale)", "setting": "[15]; [30]", "result": 20},
      {"measurement": "Ragweed plant response rating (0-100)", "setting": "[16]; [29]", "result": 20},
      {"measurement": "Ragweed plant response rating (0 to 100 scale)", "setting": "[16]; [30]", "result": 0},
      {"measurement": "Ryegrass, Italian plant response rating (0-100)", "setting": "[17]; [29]", "result": 70},
      {"measurement": "Ryegrass, Italian plant response rating (0 to 100 scale)", "setting": "[17]; [30]", "result": 20},
      {"measurement": "Barnyardgrass plant response rating (0-100)", "setting": "[18]; [29]", "result": 80},
      {"measurement": "Barnyardgrass plant response rating (0 to 100 scale)", "setting": "[18]; [30]", "result": 30},
      {"measurement": "Kochia plant response rating (0-100)", "setting": "kochia (Bassia scoparia) [19]; [29]", "result": 70},
      {"measurement": "Kochia plant response rating (0 to 100 scale)", "setting": "kochia (Bassia scoparia) [19]; [30]", "result": 0},
      {"measurement": "Blackgrass plant response rating (0-100)", "setting": "[20]; [29]", "result": 90},
      {"measurement": "Blackgrass plant response rating (0 to 100 scale)", "setting": "[20]; [30]", "result": 50},
      {"measurement": "Galium plant response rating (0-100)", "setting": "[21]; [29]", "result": 70},
      {"measurement": "Galium plant response rating (0 to 100 scale)", "setting": "[21]; [30]", "result": 50},
      {"measurement": "Pigweed, Palmer plant response rating (0-100)", "setting": "[22]; [29]", "result": 10},
      {"measurement": "Pigweed, Palmer plant response rating (0 to 100 scale)", "setting": "[22]; [30]", "result": 0},
      {"measurement": "Corn plant response rating (0-100)", "setting": "corn (Zea mays) [23]; [29]", "result": 60},
      {"measurement": "Corn plant response rating (0 to 100 scale)", "setting": "corn (Zea mays) [23]; [30]", "result": 0},
      {"measurement": "Oat, Wild plant response rating (0-100)", "setting": "[24]; [29]", "result": 60},
      {"measurement": "Oat, Wild plant response rating (0 to 100 scale)", "setting": "[24]; [30]", "result": 20},
      {"measurement": "Horseweed plant response rating (0-100)", "setting": "[25]; [29]", "result": 10},
      {"measurement": "Horseweed plant response rating (0 to 100 scale)", "setting": "[25]; [30]", "result": 20},
      {"measurement": "Soybean plant response rating (0-100)", "setting": "soybean (Glycine max) [26]; [29]", "result": 50},
      {"measurement": "Soybean plant response rating (0 to 100 scale)", "setting": "soybean (Glycine max) [26]; [30]", "result": 30},
      {"measurement": "Foxtail, Green plant response rating (0-100)", "setting": "[27]; [29]", "result": 20},
      {"measurement": "Foxtail, Green plant response rating (0 to 100 scale)", "setting": "[27]; [30]", "result": 10}
    ]}
  ]
}
